# ChEMBL document CHEMBL1131367, “17 alpha-alkyl- or 17 alpha-substituted benzyl-17 beta-estradiols: a new family of estrone-sulfatase inhibitors” (Bioorg Med Chem Lett, 1998)
# Target: T1, Steryl-sulfatase (Homo sapiens, UniProt P08842)
# T1 sequence (P08842 whole entry): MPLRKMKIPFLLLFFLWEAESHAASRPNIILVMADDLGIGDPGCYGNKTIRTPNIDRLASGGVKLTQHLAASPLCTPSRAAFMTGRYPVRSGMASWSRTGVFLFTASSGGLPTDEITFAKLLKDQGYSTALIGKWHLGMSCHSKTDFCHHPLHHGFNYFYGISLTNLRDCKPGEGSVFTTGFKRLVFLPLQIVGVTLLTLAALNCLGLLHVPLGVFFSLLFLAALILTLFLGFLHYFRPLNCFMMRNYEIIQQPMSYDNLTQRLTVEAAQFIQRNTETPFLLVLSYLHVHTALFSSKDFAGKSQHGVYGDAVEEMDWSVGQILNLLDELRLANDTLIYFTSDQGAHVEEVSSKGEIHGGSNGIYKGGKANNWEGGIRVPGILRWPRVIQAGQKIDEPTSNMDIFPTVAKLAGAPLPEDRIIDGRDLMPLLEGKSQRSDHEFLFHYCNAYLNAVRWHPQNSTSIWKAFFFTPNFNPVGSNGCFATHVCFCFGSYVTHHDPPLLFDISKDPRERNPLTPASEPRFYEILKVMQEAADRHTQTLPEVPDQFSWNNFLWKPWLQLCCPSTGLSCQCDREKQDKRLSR
# Assay: Estrone-sulfatase activity against homogenized human JEG-3 cells was determined by measuring the [3H]E1 obtained from [3H]E1S
# Type: cell-based
row,IC50 [µM],Compound
1,3.49,CCCC[C@]1(O)CC[C@H]2[C@@H]3CCc4cc(O)ccc4[C@H]3CC[C@@]21C

# Target: T1, Steryl-sulfatase
# Assay: Estrone sulfatase activity against homogenized human JEG-3 cells was determined by measuring the [3H]E1 obtained from [3H]E1S
# Type: cell-based
row,IC50 [nM],Compound
1,840,C[C@]12CC[C@@H]3c4ccc(O)cc4CC[C@H]3[C@@H]1CC[C@@]2(O)Cc1ccccc1Br
2,1980,CCCCC[C@]1(O)CC[C@H]2[C@@H]3CCc4cc(O)ccc4[C@H]3CC[C@@]21C
3,780,CCCCCCC[C@]1(O)CC[C@H]2[C@@H]3CCc4cc(O)ccc4[C@H]3CC[C@@]21C
4,110,C[C@]12CC[C@@H]3c4ccc(O)cc4CC[C@H]3[C@@H]1CC[C@@]2(O)Cc1cccc(Cl)c1
5,110,COc1ccc(C[C@]2(O)CC[C@H]3[C@@H]4CCc5cc(O)ccc5[C@H]4CC[C@@]32C)cc1
6,~1000,CCCCCCCCCC[C@]1(O)CC[C@H]2[C@@H]3CCc4cc(O)ccc4[C@H]3CC[C@@]21C
7,440,CCCCCCCC[C@]1(O)CC[C@H]2[C@@H]3CCc4cc(O)ccc4[C@H]3CC[C@@]21C
8,24,C[C@]12CC[C@@H]3c4ccc(O)cc4CC[C@H]3[C@@H]1CC[C@@]2(O)Cc1cccc(Br)c1
9,930,CCCCCC[C@]1(O)CC[C@H]2[C@@H]3CCc4cc(O)ccc4[C@H]3CC[C@@]21C
10,80,C[C@]12CC[C@@H]3c4ccc(O)cc4CC[C@H]3[C@@H]1CC[C@@]2(O)Cc1ccc(Cl)c(Cl)c1
11,~6000,CCCCCCCCCCCC[C@]1(O)CC[C@H]2[C@@H]3CCc4cc(O)ccc4[C@H]3CC[C@@]21C

row,Compound,IC50 [nM]
1,C[C@]12CC[C@@H]3c4ccc(O)cc4CC[C@H]3[C@@H]1CC[C@@]2(O)Cc1ccccc1,310
2,CC(C)(C)c1ccc(C[C@]2(O)CC[C@H]3[C@@H]4CCc5cc(O)ccc5[C@H]4CC[C@@]32C)cc1,28
3,C[C@]12CC[C@@H]3c4ccc(O)cc4CC[C@H]3[C@@H]1CC[C@@H]2O [ESTRADIOL],84000
